Key:
full-length HAQ STING = target: T1, full-length HAQ STING (Homo sapiens, UniProt Q86WV6, G230A/H232R/R293Q/R71H); test: 3H-cGAMP filtration binding assay (HAQ STING); conditions: competition with tritiated cGAMP ligand; T. ni cell membranes overexpressing full-length HAQ STING
T1 construct: made in house; host or cells: Trichoplusia ni (Hi-Five) insect cells, baculovirus generated in Sf21; crude membranes

full-length WT STING = target: T2, full-length WT STING (Homo sapiens, UniProt Q86WV6, H232R); test: 3H-cGAMP filtration binding assay (WT STING); conditions: competition with tritiated cGAMP ligand; T. ni cell membranes overexpressing full-length WT STING
T2 construct: made in house; host or cells: Trichoplusia ni insect cells, baculovirus generated in Sf21; crude membranes
Experimental: The ability of compounds to bind STING is quantified by their ability to compete with tritiated cGAMP ligand for human STING receptor membrane using a radioactive filter-binding assay. The binding assay employs STING receptor obtained from Trichoplusia ni cell membranes (T. ni; Expression Systems, cat #94-002F, www.expressionsystems.com) overexpressing full-length WT STING and tritiated cGAMP ligand.
The basic WT STING filtration assay protocol is as follows:
16 nM of [^3H] c-GAMP ligand was prepared by diluting into assay buffer, and 50 uL of this working stock was manually added to each well of the assay plate. After ligand addition, 2 uL of either titrated test compound, DMSO control (Sigma #276855), or cold cGAMP control was added to the appropriate wells using a BIOMEK FX. The serially titrated compound was prepared on a Hamilton STARPlus CORE in a 96-well plate (Greiner, #651201) using a 1:3 ten-point dose response format. Following compound addition, a 2.2 ug/ml working concentration of STING membrane (SEQ. ID. No. 3) was prepared by diluting concentrated membrane into assay buffer (1×PBS; Invitrogen #SH30028.02) and douncing 7× using a manual tissue homogenizer (Wheaton, #357546). 148 uL of this prepared membrane was then manually added to each well of a 96-well deep-well polypropylene plate (Fisher Scientific, #12-566-121). Compound, ligand, and membrane then incubated for 60 min at RT before the contents of each assay plate were filtered through a 96-well GF/B filter plate (PerkinElmer, #6005250) using a TOMTEC MACH III Cell Harvester equipped with 20 mM HEPES buffer (Fisher Scientific, #BP299500). The filter plates were then dried at 55° C. for 30 min using a pressurized VWR oven before 30 uL of ULTIMA GOLD F scintillate was added to each well. Tritium levels for each reaction well were then measured using a PerkinElmer TopCount plate reader.
After normalization to controls, the percent activity for each compound concentration was calculated by measuring the amount of remaining radioactivity. The plot of percent activity versus the log of compound concentration was fit with a 4-parameter dose response equation to calculate EC50 values.

[1] = tested on: IFN-β secretion from THP1 cells; test: IFN-β secretion in THP1 cell culture (5 h); assay type: cell-based, human; conditions: THP1 cells, 5 h incubation, compound at 30 μM, 30 uM cGAMP = 100%; for activation at 30 µM: Homo sapiens, THP-1, 5 h, read-out: % Effect at 30 μM relative to 2′3′-cGAMP
In short: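 THP1 cells at 0.8×10^6/mL were incubated with compounds for 5 h at 37 °C, and secreted IFN-β in the supernatant was measured by AlphaLISA. Percent effect was normalised to 30 uM cGAMP (positive) and 0.3% DMSO (negative) controls. EC50 came from a 4-parameter fit.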

T1 sequence (Q86WV6 with tags, fused parts or gaps R71H/G230A/H232R/R293Q): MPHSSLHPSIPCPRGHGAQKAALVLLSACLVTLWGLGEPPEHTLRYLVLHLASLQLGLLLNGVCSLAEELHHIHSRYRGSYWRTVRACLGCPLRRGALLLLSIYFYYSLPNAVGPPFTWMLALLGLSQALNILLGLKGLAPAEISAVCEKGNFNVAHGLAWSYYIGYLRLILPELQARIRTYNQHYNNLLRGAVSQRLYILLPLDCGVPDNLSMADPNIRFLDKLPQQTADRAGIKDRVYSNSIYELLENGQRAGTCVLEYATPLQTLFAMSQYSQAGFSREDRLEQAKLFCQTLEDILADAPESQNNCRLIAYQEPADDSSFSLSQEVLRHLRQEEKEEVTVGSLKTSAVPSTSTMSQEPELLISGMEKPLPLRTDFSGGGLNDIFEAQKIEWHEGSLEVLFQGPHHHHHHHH
T2 sequence (Q86WV6 with tags, fused parts or gaps H232R): as the sequence (Q86WV6 with tags, fused parts or gaps R71H/G230A/H232R/R293Q) above, with H71R, A230G, Q293R counted along it

SMILES	EC50 (full-length HAQ STING)	EC50 (full-length WT STING)	activation at 30 µM [1]	% Effect at 30 μM relative to 2′3′-cGAMP [1]
Nc1ncnc2c1ncn2[C@@H]1O[C@@H]2CO[P@@](=O)(S)O[C@@H]3[C@H](O)[C@@H](CO[P@](=O)(S)O[C@H]2[C@@H]1F)O[C@H]3n1ccc(=O)n2ccnc12 [Example 3, 8-[(2S,5R,7R,8R,10R,12aR,14R,15S,15aR, 16R)-14-(6-amino-9H-purin-9-yl)-15-fluoro-16-hydroxy-2,10-dioxido-2,10-disulfanyloctahydro-12H-5,8-methanofuro[3,2-l][1,3,6,9,11,2,10]pentaoxadiphosphacyclotetradecin-7-yl]imidazo [1,2-a]pyrimidin-5(8H)-one]	140 nM	1860 nM	20%	–
Nc1ncnc2c1nnn2[C@@H]1O[C@@H]2COP(=O)(S)O[C@@H]3[C@H](O)[C@@H](COP(=O)(S)O[C@H]2[C@@H]1F)O[C@H]3n1ccc(=O)n2ccnc12 (stereo partly drawn) [Example 4]	59 nM	1760 nM	139%	–
Nc1nc2c(ncn2[C@@H]2O[C@@H]3CO[P@](=O)(S)O[C@H]4[C@H](F)[C@H](n5ccc6c(=O)[nH]cnc65)O[C@@H]4CO[P@@](=O)(S)O[C@@H]2C3)c(=O)[nH]1 [Example 41, 2-amino-9-[(2R,5S,7R,8R,10R,12aR,14R,15S,15aR)-15-fluoro-2,10-dioxido-14-(4-oxo-3,4-dihydro-7H-pyrrolo[2,3-d]pyrimidin-7-yl)-2,10-disulfanyl-octahydro-12H-5,8-methanofuro[3,2-l] [1,3,6,9,11,2,10]pentaoxadiphosphacyclotetradecin-7-yl]-l,9-dihydro-6H-purin-6-one]	2 nM	124 nM	156%	–
Nc1nc2c(nnn2[C@@H]2O[C@@H]3COP(=O)(S)O[C@H]4[C@H](F)[C@H](n5ccc6c(=O)[nH]cnc65)O[C@@H]4COP(=O)(S)O[C@@H]2C3)c(=O)[nH]1 (stereo partly drawn) [Example 45, 5-amino-3-[(5S,7R,8R,12aR,14R,15S, 15aR)-15-fluoro-2,10-dioxido-14-(4-oxo-3,4-dihydro-7H-pyrrolo[2,3-d]pyrimidin-7-yl)-2,10-disulfanyl-octahydro-12H-5,8-methanofuro[3,2-l][1,3,6,9,11,2,10]pentaoxadiphosphacyclotetradecin-7-yl]-3,6-dihydro-7H-[1,2,3]triazolo[4,5-d]pyrimidin-7-one]	3 nM	85 nM	135%	–

Further lines, with some results ahead:

EC50 (full-length HAQ STING)	EC50 (full-length WT STING)	SMILES	activation at 30 µM [1]	% Effect at 30 μM relative to 2′3′-cGAMP [1]
563 nM	10300 nM	Nc1ncnc2c1ccn2[C@H]1C[C@@H]2O[P@@](=O)(S)OC[C@H]3O[C@@H](n4ccc(=O)n5ccnc45)[C@H](O[P@](=O)(S)OC[C@H]2O1)[C@@H]3O [Example 5, 8-[(2S,5R,7R,8R,10R,12aR,14R,15aS,16R)-14-(4-amino-7H-pyrrolo[2,3-d]pyrimidin-7-yl)-16-hydroxy-2,10-dioxido-2,10-disulfanyloctahydro-12H-5,8-methanofuro[3,2-l][1,3,6,9,11,2,10]pentaoxadiphosphacyclotetradecin-7-yl]imidazo [1,2-a]pyrimidin-5(8H)-one]	39%	–
238 nM	1960 nM	Nc1ncnc2c1ncn2[C@@H]1O[C@@H]2CO[P@@](=O)(S)O[C@@H]3[C@H](O)[C@@H](CO[P@@](=O)(S)O[C@H]2[C@@H]1F)O[C@H]3n1ccc(=O)c2nccn21 [Example 13, 5-[(2R,5R,7R,8R,10R,12aR,14R,15S,15aR, 16R)-14-(6-amino-9H-purin-9-yl)-15-fluoro-16-hydroxy-2,10-dioxido-2,10-disulfanyloctahydro-12H-5,8-methanofuro[3,2-l][1,3,6,9,11,2,10]pentaoxadiphosphacyclotetradecin-7-yl]imidazo [1,2-b]pyridazin-8(5H)-one]	334%	–
208 nM	902 nM	Nc1ncnc2c1ncn2[C@@H]1O[C@@H]2CO[P@@](=O)(S)O[C@@H]3C[C@@H](CO[P@@](=O)(S)O[C@H]2[C@@H]1F)O[C@H]3n1ccc(=O)n2ccnc12 [Example 19, 8-[(2R,5S,7R,8R,10R,12aR,14R,15S,15aR)-14-(6-amino-9H-purin-9-yl)-15-fluoro-2,10-dioxido-2,10-disulfanyloctahydro-12H-5,8-methanofuro[3,2-l][11,3,6,9,11,2,10]pentaoxadiphosphacyclotetradecin-7-yl]imidazo[1,2-a]pyrimidin-5(8H)-one]	–	7%
45 nM	136 nM	O=c1[nH]cnc2c1ncn2[C@@H]1O[C@@H]2CO[P@@](=O)(S)O[C@@H]3C[C@@H](CO[P@@](=O)(S)O[C@H]2[C@@H]1F)O[C@H]3n1ccc(=O)n2ccnc12 [Example 29, 9-[(2R,5S,7R,8R,10R,12aR,14R,15S,15aR)-15-fluoro-2,10-dioxido-7-(5-oxoimidazo[1,2-a]pyrimidin-8(5H)-yl)-2,10-disulfanyloctahydro-12H-5,8-methanofuro[3,2-l][1,3,6,9,11,2,10]pentaoxadiphosphacyclotetradecin-14-yl]-1,9-dihydro-6H-purin-6-one]	150%	–
2 nM	205 nM	Nc1nc2c(nnn2[C@@H]2O[C@@H]3COP(=O)(S)O[C@H]4[C@H](F)[C@H](n5ccc6c(=O)[nH]cnc65)O[C@@H]4COP(=O)(S)O[C@@H]2[C@H]3F)c(=O)[nH]1 (stereo partly drawn) [Example 48, 5-amino-3-[(5R,7R,8S,12aR,14R,15S,15aR,16S)-15,16-difluoro-2,10-dioxido-14-(4-oxo-3,4-dihydro-7H-pyrrolo[2,3-d]pyrimidin-7-yl)-2,10-disulfanyl-octahydro-12H-5,8-methanofuro[3,2-l] [1,3,6,9,11,2,10]pentaoxadiphosphacyclotetradecin-7-yl]-3,6-dihydro-7H-[1,2,3]triazolo[4,5-d]pyrimidin-7-one]	159%	–

Reference: patent US11685761B2, “Cyclic di-nucleotide compounds as sting agonists” (Merck Sharp & Dohme Corp., priority 2017, dated 2023)
